Molecules are shown by their SMILES. Where “and” joins values, the source holds several entries; their conditions need not be identical. Equal values may be shown once.

fully phosphorylated, mouse aERK2 enzyme, sequence (P63085 whole entry): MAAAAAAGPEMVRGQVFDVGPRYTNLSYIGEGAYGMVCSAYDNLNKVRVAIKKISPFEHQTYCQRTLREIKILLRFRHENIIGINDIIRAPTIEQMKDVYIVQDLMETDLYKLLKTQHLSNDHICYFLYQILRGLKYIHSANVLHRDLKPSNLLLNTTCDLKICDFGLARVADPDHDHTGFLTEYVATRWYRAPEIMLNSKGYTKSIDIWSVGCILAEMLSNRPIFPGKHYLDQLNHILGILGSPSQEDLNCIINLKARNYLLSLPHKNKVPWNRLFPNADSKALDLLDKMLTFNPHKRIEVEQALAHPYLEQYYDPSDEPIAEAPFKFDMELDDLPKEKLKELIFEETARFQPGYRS

One experiment concerns the target fully phosphorylated, mouse aERK2 enzyme (Mus musculus (Mouse), UniProt P63085). The experiment can be described thus: Active ERK2 (aERK) IMAP-FP assay, condition 2. It counts as biochemical. The note with it: aERK assay condition 2, 30 uM ATP; read-out: aERK IC50. As to the method: Active ERK2 (aERK) Assay: (Unless Indicated Otherwise, the Data Provided for aERK was obtained using Condition 1)
Activated ERK2 activity was determined in an IMAP-FP assay (Molecular Devices). […] Phosphorylation reactions were allowed to proceed for 40-45 minutes and were immediately quenched by the addition of 60 μL IMAP detection beads (1:1000 dilutions) in IMAP binding buffer. Plates were read on EnVision reader after 30 minutes binding equilibration.
The term IC50 denotes the midpoint of a concentration-inhibition curve. As for `O=C(N[C@@H]1CCCN(CC2CC2)C1)c1ccc2[nH]nc(-c3ccncc3)c2c1`, the IC50 amounted to 0.206 µM.
For the molecule `COc1ccnc(NC(=O)[C@@H]2CC[C@@H](NC(=O)c3ccc4[nH]nc(-c5ccnc(C)c5)c4c3)CN2Cc2c(F)cccc2OC)c1` [N-{(3R,6S)-1-(2-fluoro-6-methoxybenzyl)-6-[(4-methoxypyridin-2-yl)carbamoyl]piperidin-3-yl}-3-(2-methylpyridin-4-yl)-1H-indazole-5-carboxamide], the half-maximal inhibitory concentration (IC50) is 0.0502 µM.
On the same count and under the same terms, the result for `COc1cccc(F)c1CN1C[C@H](NC(=O)c2ccc3[nH]nc(-c4ccnc(C)c4)c3c2)CC[C@H]1C(=O)N(C)C1CC1` [N-[(3R,6S)-6-[cyclopropyl(methyl)carbamoyl]-1-(2-fluoro-6-methoxybenzyl)piperidin-3-yl]-3-(2-methylpyridin-4-yl)-1H-indazole-5-carboxamide] reads 0.0025 µM; that for `COc1cccc(F)c1CN1C[C@H](NC(=O)c2ccc3[nH]nc(-c4ccnc(C)c4)c3c2)CC[C@H]1C(=O)Nc1ccc(C)nc1` [N-{(3R,6S)-1-(2-fluoro-6-methoxybenzyl)-6-[(6-methylpyridin-3-yl)carbamoyl]piperidin-3-yl}-3-(2-methylpyridin-4-yl)-1H-indazole-5-carboxamide], 0.0067 µM; that for `CNC(=O)C(c1c(F)cccc1F)N1CCC[C@@H](NC(=O)c2ccc3[nH]nc(-c4ccncc4)c3c2)C1` (single isomer, unassigned) [drawing 506, N-((R)-1-((S or R)-1-(2,6-difluorophenyl)-2-(methylamino)-2-oxoethyl)piperidin-3-yl)-3-(pyridin-4-yl)-1H-indazole-5-carboxamide], 0.0208 µM.
Still for that read-out and setting: the result for `COc1cccc(F)c1CN1C[C@H](NC(=O)c2ccc3[nH]nc(-c4ccnc(C)c4)c3c2)CC[C@H]1C(=O)Nc1nccs1` [N-[(3R,6S)-1-(2-fluoro-6-methoxybenzyl)-6-(1,3-thiazol-2-ylcarbamoyl)piperidin-3-yl]-3-(2-methylpyridin-4-yl)-1H-indazole-5-carboxamide] reads 0.014 µM; that for `CNC(=O)C(c1ccccc1F)N1CCC[C@@H](NC(=O)c2ccc3[nH]nc(-c4ccncc4)c3c2)C1` (single isomer, unassigned) [drawing 501, N-((R)-1-((R or S)-1-(2-fluorophenyl)-2-(methyl-amino)-2-oxoethyl)piperidin-3-yl)-3-(pyridin-4-yl)-1H-indazole-5-carboxamide], 0.175 µM; that for `COc1ccc(NC(=O)[C@@H]2CC[C@@H](NC(=O)c3ccc4[nH]nc(-c5ccnc(C)c5)c4c3)CN2Cc2c(F)cccc2OC)cc1` [N-{(3R,6S)-1-(2-fluoro-6-methoxybenzyl)-6-[(4-methoxyphenyl)carbamoyl]piperidin-3-yl}-3-(2-methylpyridin-4-yl)-1H-indazole-5-carboxamide], 0.0116 µM.
On the same count and under the same terms, the result for `NC(=O)C(c1c(F)cccc1F)N1CCC[C@@H](NC(=O)c2ccc3[nH]nc(-c4ccncc4)c3c2)C1` (single isomer, unassigned) [drawing 504, N-((R)-1-((S or R)-2-amino-1-(2,6-difluorophenyl)-2-oxoethyl)piperidin-3-yl)-3-(pyridin-4-yl)-1H-indazole-5-carboxamide] reads 0.0353 µM; that for `COc1cccc(F)c1CN1C[C@H](NC(=O)c2ccc3[nH]nc(-c4ccnc(C)c4)c3c2)CC[C@H]1C(=O)NC[C@@H]1CC[C@@H](O)C1` [N-[(3R,6S)-1-(2-fluoro-6-methoxybenzyl)-6-({[(1R,3R)-3-hydroxycyclopentyl]methyl}carbamoyl)piperidin-3-yl]-3-(2-methylpyridin-4-yl)-1H-indazole-5-carboxamide], 0.0015 µM; that for `COc1cccc(F)c1CN1CCC[C@@H](NC(=O)c2ccc3[nH]nc(C4=CCOCC4)c3c2)C1` [3-(3,6-dihydro-2H-pyran-4-yl)-N-[(3R)-1-(2-fluoro-6-methoxy-benzyl)piperidin-3-yl]-1H-indazole-5-carboxamide], 0.0013 µM.
As to `COc1cccc(F)c1CN1C[C@H](NC(=O)c2ccc3[nH]nc(-c4ccnc(C)c4)c3c2)CC[C@H]1C(=O)Nc1ccc(C)cc1C` [N-[(3R,6S)-6-[(2,4-dimethylphenyl)carbamoyl]-1-(2-fluoro-6-methoxybenzyl)piperidin-3-yl]-3-(2-methylpyridin-4-yl)-1H-indazole-5-carboxamide], the IC50 is 0.0548 µM.
Still for that read-out and setting: the result for `COc1ccc(NC(=O)[C@@H]2CC[C@@H](NC(=O)c3ccc4[nH]nc(-c5ccnc(C)c5)c4c3)CN2Cc2c(F)cccc2OC)cc1F` [N-{(3R,6S)-1-(2-fluoro-6-methoxybenzyl)-6-[(3-fluoro-4-methoxyphenyl)carbamoyl]piperidin-3-yl}-3-(2-methylpyridin-4-yl)-1H-indazole-5-carboxamide] reads 0.0167 µM.
The same measure, in the same setting: in the case of `COc1cccc(F)c1CN1CCC[C@@H](NC(=O)c2ccc3[nH]nc(C4CCOCC4)c3c2)C1` [N-[(3R)-1-(2-fluoro-6-methoxybenzyl)piperidin-3-yl]-3-(tetrahydro-2H-pyran-4-yl)-1H-indazole-5-carboxamide] it was 0.195 µM.

Still in this experiment, the particulars now being: active ERK2; read-out: aErk2 Ic50.
Turning to `COc1cccc(F)c1CN1C[C@H](NC(=O)c2ccc3[nH]nc(-c4ccnc(C)c4)c3c2)CC[C@H]1C(=O)NCCNC(=O)OC(C)(C)C` [tert-butyl [2-({[(2S,5R)-1-(2-fluoro-6-methoxybenzyl)-5-({[3-(2-methylpyridin-4-yl)-1H-indazol-5-yl]carbonyl}amino)piperidin-2-yl]carbonyl}amino)ethyl]carbamate], the half-inhibitory concentration (IC50) turned out to be 0.0189 µM.
Still for that read-out and setting: the result for `Cc1cc(-c2n[nH]c3ccc(C(=O)N[C@@H]4CC[C@@H](C(=O)N(C)C)N(CCc5ccccc5)C4)cc23)ccn1` [N-[(3R,6S)-6-(dimethylcarbamoyl)-1-(2-phenylethyl)piperidin-3-yl]-3-(2-methylpyridin-4-yl)-1H-indazole-5-carboxamide] reads 0.131 µM.
Same read-out and setting: in the case of `COc1cccc(F)c1CN1C[C@H](NC(=O)c2ccc3[nH]nc(-c4ccc5nn(C)cc5c4)c3c2)CC[C@H]1C(=O)Nc1nccs1` it was 0.113 µM; in that of `COc1cccc(F)c1CN1C[C@H](NC(=O)c2ccc3[nH]nc(-c4ccnc(C)c4)c3c2)CC[C@H]1C(=O)N1CCOCC1` [N-[(3R,6S)-1-(2-fluoro-6-methoxybenzyl)-6-(morpholin-4-ylcarbonyl)piperidin-3-yl]-3-(2-methylpyridin-4-yl)-1H-indazole-5-carboxamide], 0.0182 µM.
Still for that read-out and setting: the result for `[2H]C([2H])([2H])Oc1cccc(F)c1CN1C[C@H](NC(=O)c2ccc3[nH]nc(-c4ccnc(C)c4)c3c2)CC[C@H]1C(=O)N1CCN(C(=O)OC(C)(C)C)CC1` reads 0.0122 µM; that for `COc1cccc(F)c1CN1C[C@H](NC(=O)c2ccc3[nH]nc(-c4ccnnc4)c3c2)CC[C@H]1C(=O)N(C)C` [N-[(3R,6S)-6-(dimethylcarbamoyl)-1-(2-fluoro-6-methoxybenzyl)piperidin-3-yl]-3-pyridazin-4-yl-1H-indazole-5-carboxamide], 0.137 µM; that for `CCNC(=O)[C@@H]1CC[C@@H](NC(=O)c2ccc3[nH]nc(-c4ccncc4)c3c2)CN1Cc1ccccc1` [N-[(3R,6S)-1-benzyl-6-(ethylcarbamoyl)-piperidin-3-yl]-3-pyridin-4-yl-1H-indazole-5-carboxamide], 0.0483 µM.
For the molecule `CCN(CC)C(=O)[C@@H]1CC[C@@H](NC(=O)c2ccc3[nH]nc(-c4ccc5nc(C)sc5c4)c3c2)CN1Cc1c(F)cccc1OC` [N-[(3R,6S)-6-(diethylcarbamoyl)-1-(2-fluoro-6-methoxybenzyl)piperidin-3-yl]-3-(2-methyl-1,3-benzothiazol-6-yl)-1H-indazole-5-carboxamide], the IC50 turned out to be 0.0329 µM.
Same read-out and setting: in the case of `COc1cccc(F)c1CN1C[C@H](NC(=O)c2ccc3[nH]nc(-c4ccnc(C)c4)c3c2)CC[C@H]1C(=O)NCCO` [N-{(3R,6S)-1-(2-fluoro-6-methoxybenzyl)-6-[(2-hydroxyethyl)carbamoyl]piperidin-3-yl}-3-(2-methylpyridin-4-yl)-1H-indazole-5-carboxamide] it was 0.0056 µM.
The same measure, in the same setting: the result for `CCN(CC)C(=O)[C@@H]1CC[C@@H](NC(=O)c2ccc3[nH]nc(-c4ccnc(C)c4)c3c2)CN1Cc1ccccc1F` [N-[(3R,6S)-6-(diethylcarbamoyl)-1-(2-fluorobenzyl)piperidin-3-yl]-3-(2-methylpyridin-4-yl)-1H-indazole-5-carboxamide] reads 0.0201 µM; that for `CCN(C)C(=O)[C@@H]1CC[C@@H](NC(=O)c2ccc3[nH]nc(-c4ccnc(C)c4)c3c2)CN1Cc1c(F)cccc1OC` [N-[(3R,6S)-6-[ethyl(methyl)carbamoyl]-1-(2-fluoro-6-methoxybenzyl)piperidin-3-yl]-3-(2-methylpyridin-4-yl)-1H-indazole-5-carboxamide], 0.0218 µM; that for `CCN(CC)C(=O)[C@@H]1CC[C@@H](NC(=O)c2ccc3[nH]nc(-c4ccc5nn(C)cc5c4)c3c2)CN1Cc1c(F)cccc1OC`, 0.0394 µM.
On the same count and under the same terms, in the case of `COc1cccc(F)c1CN1C[C@H](NC(=O)c2ccc3[nH]nc(-c4ccnc(C)c4)c3c2)CC[C@H]1C(=O)N1CCN(C(=O)OC(C)(C)C)CC1` [tert-butyl 4-{[(2S,5R)-1-(2-fluoro-6-methoxy-benzyl)-5-({[3-(2-methylpyridin-4-yl)-1H-indazol-5-yl]carbonyl}amino)piperidin-2-yl]carbonyl}piperazine-1-carboxylate] it was 0.007 µM; in that of `COc1cccc(F)c1CN1C[C@H](NC(=O)c2ccc3[nH]nc(-c4ccnnc4)c3c2)CC[C@H]1C(=O)N1CC(F)(F)C1` [N-[(3R,6S)-6-[(3,3-difluoroazetidin-1-yl)carbonyl]-1-(2-fluoro-6-methoxybenzyl)-piperidin-3-yl]-3-pyridazin-4-yl-1H-indazole-5-carboxamide], 0.0612 µM.
Consider `COc1cccc(F)c1CN1C[C@H](NC(=O)c2ccc3[nH]nc(-c4ccnc(C)c4)c3c2)CC[C@H]1C(=O)N1CC(F)(F)C1` [N-[(3R,6S)-6-[(3,3-difluoroazetidin-1-yl)carbonyl]-1-(2-fluoro-6-methoxybenzyl)-piperidin-3-yl]-3-(2-methylpyridin-4-yl)-1H-indazole-5-carboxamide], for which the IC50 is 0.0148 µM and 0.0104 µM.

(Values after patent publication US8999957B2, “Heterocyclic compounds as ERK inhibitors” (Merck Sharp & Dohme Corp., priority 2010, dated 2015).)
